1 molecule from patent US11793782B2, “Therapeutic agents for neurodegenerative diseases” (priority 2017, dated 2023) can be followed below.

Data set [1] relates to SCA 1 patient. Kind of data set: Case study, Spinocerebellar Ataxia (SCA) 1. It is filed as in vivo, human. The text has this:
The patient in this case study was a person who was genetically diagnosed with Spinocerebellar Ataxia (SCA) 1. Before treatment, the patient had severe problems with speaking and swallowing, tremor of both arms, spasticity and moderate ataxia of stance and gait. The patient also had problems sleeping.

The test system of data set [2] is restless leg syndrome patients. In words: Case studies, restless legs syndrome (IRLS score). It counts as in vivo, human. More on the design: key to IRLS: IRLS 0 (no symptoms) to 40; >30 very severe, ≤10 mild. The text has this: A widely reported rating scale known as the International Restless Leg Syndrome Study Group Rating Scale (“IRLS”) was developed by the International Restless Legs Syndrome Study Group (“IRLSSG”) (http://www.irlssg.org/) (Walters et al., Validation of the International Restless Legs Syndrome Study Group rating scale for restless legs syndrome. Sleep medicine. 2003 Apr. 1; 4(2):121-32). The IRLS is a 10-item scale with scores ranging from 0 (no symptoms) to 40. Scores >30 are considered very severe, severe (Score 21-30), moderate (scores 11-20) and ≤10, mild. Use of the scale is common for clinical assessment, research and therapeutic trials with RLS. In one embodiment, treatment with leucine, acetyl-leucine, or a pharmaceutically acceptable salt thereof as described herein decreases the subject's International Restless Leg Syndrome Study Group Rating Scale (“IRLS”) compared to a baseline. In one embodiment, the IRLS is reduced compared to baseline by at least 10%, at least 20%, at least 30%, at least 40%, or at least 50%. In one embodiment, the IRLS is reduced by at least 60%, at least 70%, at least 80%, at least 90%, or 100%.
The patient in this case study was a person showing proximal weakness of the so lower limb. […] Upon consultation, they reported no sensory symptoms but complained of a restless leg syndrome at night and during resting periods of the day, occurring over the course of the last two years. Pre-treatment with dopamine agonist were without symptom relief. Serum creatine kinase activity was only mildly elevated at up to 400 IU/L. The patient was evaluated using the RLS diagnostic index (RLS-DI) (see Walters et al., Sleep Med 2003; 4(2):121-132;). The patient's International Restless Legs Syndrome Rating Scale score (IRLS) was 36, and thus a severe RLS was diagnosed. […] Re-introduction of the treatment re-declined the score to 8 after 2 weeks. Continuation of treatment over more than 22 weeks stabilized the IRLS score at 8.
The patient in this case study was a person showing proximal weakness of the lower limb. […] Upon consultation, they reported no sensory symptoms but complained of a restless leg syndrome at night and during resting periods of the day, occurring over the course of the last eight years. […] Serum creatine kinase activity was mildly elevated at 300 IU/L. Iron measurements and all additional lab investigations were normal. The patient was evaluated using the RLS-DI and the patient's IRLS was 32, and thus a moderate to severe RLS was diagnosed. […] Continuation of treatment over more than 28 weeks stabilized the IRLS score at 8.
The patient in this case study was a person showing mild proximal weakness of the upper and lower limbs slowly progressive. The patient had been diagnosed (genetically confirmed) with McArdle myopathy about 16 years ago. Upon consultation, they reported no sensory symptoms but complained about a severe fatigue and reduced stamina. The patient further reported a restless leg syndrome at night and during resting periods of the day, occurring over the course of the last 12 years. […] Serum creatine kinase activity was mildly elevated at 200 IU/L; however, the patient had 5 episodes of rhabdomyolysis during the past 20 years. Repeated iron measurements and all additional lab investigations were normal. The patient was evaluated using the RLS-DI and the patient's IRLS was 34, and thus a severe RLS was diagnosed. […] Continuation of treatment over more than 30 weeks stabilized the IRLS score at 10. In addition, the patient's fatigue declined (Fatigue Severit Scale: 9 (minimum) to 63 (maximum)) from 53 to 28.

Data set [3] deals with amyloid precursor protein C-terminal fragments (APP-CTFs). Kind of data set: APP-CTF levels in cerebellum of NPC1−/− mice. The settings on record: 0.1 g/kg body weight daily from 3 weeks of age, sacrificed at 8 weeks. It counts as in vivo, mouse. How it is done: The Niemann-Pick Disease Type C (NPC) mouse model shares a number of pathological features with Alzheimer's disease (AD) as described herein. […] Mice were sacrificed at 8 weeks of age. Levels of amyloid precursor protein C-terminal fragments (APP-CTFs) were evaluated relative to total amyloid precursor protein (APP) levels in the cerebellum for wild type, untreated wild type NPC1^−/− mice, and AL-treated wild type NPC1^−/− mice. Levels of microtubule-associated protein 1A/1B-light chain 3-phosphatidylethanolamine conjugate (LC3-II) were also evaluated relative to levels of tubulin loading control for wild type, untreated wild type NPC1^−/− mice, and AL-treated wild type NPC1^−/− mice.

Take `CC(=O)NC(CC(C)C)C(=O)O` (racemic) [acetyl-DL-leucine]: the Symptoms result in data set [1] (5 g/day, three weeks on medication) is recorded as “all symptoms significantly improved”. Further, the Side-effects entry in data set [1] (over two years on the same dosage) is “without any side-effects”. Besides, in data set [1] (two weeks after medication was stopped), the “Intensity of signs and symptoms after stopping” value is reported as “the same as before therapy”. The IRLS is listed as 26 in data set [2] (RLS Patient 1 (myotonic dystrophy type 2), 5 g per day, within 14 days, before 36); 8 in data set [2] (RLS Patient 1, 2 weeks after re-introduction of the treatment); 9 in data set [2] (RLS Patient 1, after another 5 weeks); 8 in data set [2] (RLS Patient 1, continuation of treatment over more than 22 weeks); 28 in data set [2] (RLS Patient 1, interruption of 4 weeks after week 12 of the treatment); 22 in data set [2] (RLS Patient 2 (myotonic dystrophy type 2), 5 g per day, within 14 days, before 32). For the same molecule, the IRLS is 7 in data set [2] (RLS Patient 2, after another 5 weeks); 8 in data set [2] (RLS Patient 2, continuation of treatment over more than 28 weeks); 20 in data set [2] (RLS Patient 3 (McArdle myopathy), 5 g per day, within 21 days, before 34); 10 in data set [2] (RLS Patient 3, after another 10 weeks); 10 in data set [2] (RLS Patient 3, continuation of treatment over more than 30 weeks). The “Fatigue Severit Scale” value in data set [2] (RLS Patient 3, scale 9 (minimum) to 63 (maximum), declined from 53) came out at 28. The “APP-CTF levels relative to total APP in the cerebellum” value in data set [3] was “lowering of APP-CTFs”.
